# Source: patent publication US20160097044A1, “Antimicrobial Enzyme Fusions Reduce Resistance and Kill Intracellular Staphylococcus aureus” (The United States of America, as Represented by the …, priority 2014, published 2016)
# Tests used:
# MRSA = details: systemically delivered, mouse models; cited from earlier work
# [1] = test system: MRSA strain NRS382 biofilms; experiment: Dynamic biofilm model, Live/Dead viability; assay type: cell-based, S. aureus; details: Staphylococcus aureus, 2 h, read-out: viability in dynamic biofilms (percentage of live cells; controls 100%)
# Description: Biofilms were pre-stained with the Live/Dead stain (see methods) and viewed with 20× magnification. FIG. 9b depicts bacterial viability. Analysis of bacterial viability in NRS382 dynamic biofilms is based on mean fluorescent intensities of the Live/Dead viability stain when exposed to 100 μg/ml of PGH K-L (1.4 μM), K-L-PTD1 (1.4 μM), or vancomycin (69 μM) at a flow rate of 0.5 ml/min for 2 h and compared to PBS. Error bars represent SEM (N=3) of three independent 100×100 pixel squares identically located in each biofilm z-stack. […]
# In order to visualize the viability of S. aureus NRS382 biofilms, each chamber of the flow cell was fluorescently labeled by the Live/Dead BacLight™ staining kit (Invitrogen, Carlsbad, Calif.) for one hour. […] To quantify the viability of S. aureus NRS382 biofilms at various time points in the presence of different treatments, one image at the center of z-series (i.e. center of the biofilm) for each time point was selected to represent each treatment group. Three squares representing 100×100 pixels were drawn in each image and the mean intensity of live (green channel) and dead (red channel) cell populations were calculated by Zen 2010 digital imaging software (Carl Zeiss). […] The percentage of live cells remaining in biofilms after various treatments was statistically analyzed by an unpaired t-test.
SMILES,protection from MRSA bacteremia / survival at 48 hours post infection (MRSA) [%],viability at 100 µg/mL [1] [%]
Cc1onc(-c2ccccc2)c1C(=O)N[C@@H]1C(=O)N2[C@@H]1SC(C)(C)[C@@H]2C(=O)O [oxacillin],20,–
CN[C@H](CC(C)C)C(=O)N[C@H]1C(=O)N[C@@H](CC(N)=O)C(=O)N[C@H]2C(=O)N[C@H]3C(=O)N[C@H](C(=O)N[C@H](C(=O)O)c4cc(O)cc(O)c4-c4cc3ccc4O)[C@H](O)c3ccc(c(Cl)c3)Oc3cc2cc(c3O[C@@H]2O[C@H](CO)[C@@H](O)[C@H](O)[C@H]2O[C@H]2C[C@](C)(N)[C@H](O)[C@H](C)O2)Oc2ccc(cc2Cl)[C@H]1O [vancomycin],–,40
